Values of other authors as cited in US6900339B2, “Bryostatin composition and bryostatin acquisition methodologies” (The University of North Carolina at Chapel Hill, priority 2002, dated 2005).

Test system: leukemia
Conditions: background statement

CCC/C=C/C=C/C(=O)O[C@H]1/C(=C/C(=O)OC)C[C@H]2C[C@H]([C@@H](C)O)OC(=O)C[C@H](O)C[C@@H]3C[C@H](OC(C)=O)C(C)(C)[C@](O)(C[C@@H]4C/C(=C/C(=O)OC)C[C@H](/C=C/C(C)(C)[C@]1(O)O2)O4)O3 [bryostatin 1]
effectiveness against leukemia: particularly effective
